The NIST ThermoML archive (doi:10.1016/j.tca.2013.12.015)

Assay: mn = molality of the nth substance listed, in mol/kg
Conditions: 101 kPa, Liquid; for speed of sound: Single path-length method; for mass density: Vibrating tube method

CCCCn1cc[n+](C)c1.[Br-] [1-butyl-3-methylimidazolium bromide] + O
Conditions | mass density, 288.15 K [kg/m3] | mass density, 293.15 K [kg/m3] | mass density, 298.15 K [kg/m3] | mass density, 303.15 K [kg/m3] | mass density, 308.15 K [kg/m3] | speed of sound, 288.15 K [m/s] | speed of sound, 293.15 K [m/s] | speed of sound, 298.15 K [m/s] | speed of sound, 303.15 K [m/s] | speed of sound, 308.15 K [m/s]
m1 = 0.1019 | 1004.34 | 1003.53 | 1002.16 | 1000.83 | 999.035 | 1479 | 1494.2 | 1506.8 | 1518.8 | 1528.1
m1 = 0.3048 | 1000.67 | 999.754 | 998.577 | 997.164 | 995.54 | 1470.2 | 1486.1 | 1500 | 1512.1 | 1522.2

CCOC(=O)CC(C)=O [ethyl 3-oxobutanoate] + O
Conditions | mass density, 288.15 K [kg/m3] | mass density, 293.15 K [kg/m3] | mass density, 298.15 K [kg/m3] | mass density, 303.15 K [kg/m3] | mass density, 308.15 K [kg/m3] | speed of sound, 288.15 K [m/s] | speed of sound, 293.15 K [m/s] | speed of sound, 298.15 K [m/s] | speed of sound, 303.15 K [m/s] | speed of sound, 308.15 K [m/s]
m1 = 0.076 | 1000.05 | 999.128 | 997.91 | 996.474 | 994.809 | 1472.6 | 1487.8 | 1501.3 | 1513 | 1523.1
m1 = 0.1625 | 1001.1 | 1000.13 | 998.838 | 997.358 | 995.64 | 1479.2 | 1493.6 | 1506.4 | 1517.4 | 1526.9
m1 = 0.2495 | 1002.14 | 1001.1 | 999.76 | 998.22 | 996.445 | 1485.5 | 1499.2 | 1511.2 | 1521.6 | 1530.4
m1 = 0.3767 | 1003.62 | 1002.48 | 1001.05 | 999.44 | 997.59 | 1494.1 | 1506.7 | 1517.7 | 1527.1 | 1535
m1 = 0.4725 | 1004.7 | 1003.48 | 1002 | 1000.32 | 998.41 | 1500 | 1511.7 | 1522 | 1530.8 | 1538.1
m1 = 0.5324 | 1005.38 | 1004.1 | 1002.58 | 1000.86 | 998.9 | 1503.4 | 1514.7 | 1524.5 | 1532.9 | 1539.8
m1 = 0.6848 | 1007.03 | 1005.6 | 1004 | 1002.18 | 1000.12 | 1511.6 | 1521.7 | 1530.5 | 1537.8 | 1543.7
m1 = 0.7843 | 1008.1 | 1006.56 | 1004.9 | 1003.01 | 1000.9 | 1516.3 | 1525.7 | 1533.7 | 1540.4 | 1545.8
m1 = 0.9019 | 1009.31 | 1007.65 | 1005.93 | 1003.94 | 1001.76 | 1521.4 | 1529.9 | 1537.2 | 1543.1 | 1547.8

COC(=O)CC(C)=O [methyl 3-oxobutanoate] + O
Conditions | mass density, 288.15 K [kg/m3] | mass density, 293.15 K [kg/m3] | mass density, 298.15 K [kg/m3] | mass density, 303.15 K [kg/m3] | mass density, 308.15 K [kg/m3] | speed of sound, 288.15 K [m/s] | speed of sound, 293.15 K [m/s] | speed of sound, 298.15 K [m/s] | speed of sound, 303.15 K [m/s] | speed of sound, 308.15 K [m/s]
m1 = 0.0809 | 1000.36 | 999.43 | 998.205 | 996.78 | 995.12 | 1472.5 | 1487.7 | 1501.3 | 1513.1 | 1523.2
m1 = 0.1654 | 1001.65 | 1000.66 | 999.37 | 997.9 | 996.2 | 1477.3 | 1491.9 | 1504.8 | 1516.1 | 1525.7
m1 = 0.285 | 1003.44 | 1002.36 | 1001 | 999.454 | 997.68 | 1484.7 | 1498.3 | 1510.5 | 1521 | 1529.9
m1 = 0.386 | 1004.9 | 1003.75 | 1002.33 | 1000.73 | 998.91 | 1490.1 | 1503.1 | 1514.6 | 1524.4 | 1532.7
m1 = 0.4607 | 1005.98 | 1004.75 | 1003.3 | 1001.65 | 999.79 | 1494.2 | 1506.6 | 1517.6 | 1527 | 1534.9
m1 = 0.5604 | 1007.37 | 1006.06 | 1004.56 | 1002.85 | 1000.94 | 1499.6 | 1511.4 | 1521.7 | 1530.5 | 1537.9
m1 = 0.6367 | 1008.4 | 1007.01 | 1005.53 | 1003.74 | 1001.79 | 1503 | 1514.2 | 1524.1 | 1532.5 | 1539.5
m1 = 0.7871 | 1010.4 | 1008.9 | 1007.35 | 1005.47 | 1003.45 | 1509.8 | 1520.2 | 1529.1 | 1536.7 | 1542.9
m1 = 0.8429 | 1011.13 | 1009.58 | 1008 | 1006.11 | 1004.04 | 1512.2 | 1522.2 | 1530.9 | 1538.1 | 1544

O [water] + CCCCn1cc[n+](C)c1.[Br-]
Conditions | mass density [kg/m3]
308.15 K, m2 = 0 | 994.062

O [water] + CCOC(=O)CC(C)=O
Conditions | mass density [kg/m3]
308.15 K, m2 = 0 | 994.062

O [water] + COC(=O)CC(C)=O
Conditions | mass density [kg/m3]
308.15 K, m2 = 0 | 994.062
